Assay results published in ChEMBL document CHEMBL4196243, “Antileishmanial Carbasugars from Geosmithia langdonii” (J Nat Prod, 2018).

These molecules were tested on Leishmania donovani (assay: Antileishmanial activity against Leishmania donovani promastigotes by alamar blue dye based fluorescence assay).
Format: functional, organism-based
In the case of `C[C@@H]1C[C@H](OC(=O)c2cc(O)ccc2O)[C@H](O)[C@H](O)[C@@H]1O`, the IC50 is reported as 100 µM and the IC90 is reported as > 134 µM.
With `C[C@@H]1C[C@H](O)[C@H](O)[C@H](O)[C@@H]1OCc1cc(O)ccc1O` the IC50 was 57 µM and the IC90 was 119 µM.
In the case of `C[C@@H]1[C@H](O)[C@@H](C)/C=C/C=C/C=C/C=C/C=C/C=C/C=C/[C@H](O[C@@H]2O[C@H](C)[C@@H](O)[C@H](N)[C@@H]2O)C[C@@H]2O[C@](O)(C[C@@H](O)C[C@@H](O)[C@H](O)CC[C@@H](O)C[C@@H](O)CC(=O)O[C@H]1C)C[C@H](O)[C@H]2C(=O)O` [AMPHOTERICIN B], the IC90 is reported as 0.4 µM.
In the case of `N=C(N)c1ccc(OCCCCCOc2ccc(C(=N)N)cc2)cc1` [PENTAMIDINE], the IC50 is reported as 9 µM and the IC90 is reported as 17 µM.
